According to patent US20240124496A1, “BORONIC ACID COMPOUND AND METHOD FOR PRODUCING SAME” (OSAKA UNIVERSITY, priority 2021, published 2024):

Tests used:
stability after labeling = format: physicochemical; settings: crude product solution with ascorbic acid added
Procedure: 3-(4,4,5,5-Tetramethyl-1,3,2-dioxaboran-2-yl)-α-methyl-L-tyrosine hydrochloride (Bpin-AMT) was dissolved in water to prepare a 1 w/v % aqueous solution. This aqueous solution (0.1 mL) was put in a microtube, and then aqueous [^131I]sodium iodide solution (0.03 mL, 1 MBq, Institute of Isotopes Co., Ltd.) and 0.4 w/v% aqueous N-bromosuccinimide (NBS) solution (0.03 mL) were added thereto, and the mixture was reacted at room temperature for 30 min. Then, to the reaction solution was added 3 w/v% aqueous ascorbic acid solution (0.03 mL) to stop the reaction to give a crude product solution of 3-iodo(^131I)-α-methyl-L-tyrosine (^131I-IAMT).
This crude product solution (1 μL) was analyzed by thin-layer chromatograph method (TLC). The sample was spotted on a thin-layer plate (silica gel G60), and a mixed solvent of acetonitrile/water (2/1) was used as a developing solvent. The thin-layer plate was exposed to an imaging plate for about 15 min, and then analyzed by a bioimage analyzer (Typhoon FLT7000, GE Healthcare, Chicago). 3-Iodo(^131I)-α-methyl-L-tyrosine was detected at Rf 0.72, and the radiochemical yield (RCY) was 86.1%. This compound was stable up to 7 days after labeling.

[1] = molecular target: T1, amino acid transporter (LAT1) (Homo sapiens, UniProt Q01650); test: ^211At-AAMT intracellular uptake in MIA PaCa-2 cells; format: cell-based; settings: 30 minutes; for inhibition of ^211At-AAMT intracellular uptake: excess amount (1 mM) added, ^211At-AAMT synthesized by the method of the present invention
T1 construct: endogenous in cells; host or cells: MIA PaCa-2 (human pancreatic cancer cells)
Procedure: Human pancreatic cancer cells MIA PaCa-2 were seeded in a 24-well culture plate at a concentration of 1×10^5 cells/mL. After 2 days, the medium was removed, the cells were washed with PBS (−), and the medium was replaced with HEPES Buffer (amino acid free). To each well, the ^211At-AAMT synthesized by the method of the present invention or the conventional mercury method was added. In addition, an excess amount (1 mM) of BCH (LAT1 inhibitor) or unlabeled (AMT) was added. After culturing the cells for 30 minutes, the cells were washed with PBS (−), and lysed with 0.1 N NaOH, and the radioactivity of the lysate was measured. The ^211At-AAMT intracellular uptake (radioactivity count/protein amount) was calculated by correcting the radioactivity per protein amount. The results are shown in FIG. 6 (FIG. 6a: the method of the present invention, FIG. 6b: the conventional mercury method). In FIG. 6, CTL is control, BCH is 2-aminobicyclo[2,2,1]heptane-2-carboxylic acid, and AMT is α-methyltyrosine.

HEK293 cells = test: cell viability after addition of ^211At-AAMT; format: cell-based; settings: 0.00-5.00 kBq per well, 24 hours, FIG. 7
Procedure: HEK293 cells were seeded in a 24-well culture plate at a concentration of 1×10^5 cells/mL. After 2 days, the medium was removed, the cells were washed with PBS (−), and the medium was replaced with HEPES Buffer (amino acid free). To each well, 0.00-5.00 kBq of the ^211At-AAMT synthesized by the method of the present invention or the conventional mercury method was added. After culturing the cells for 24 hours, the cell viability was examined. […] Industrial Applicability

[2] = produced by the mercury method; Non-Patent Document 1; cited from earlier work

T1 sequence (Q01650 whole entry): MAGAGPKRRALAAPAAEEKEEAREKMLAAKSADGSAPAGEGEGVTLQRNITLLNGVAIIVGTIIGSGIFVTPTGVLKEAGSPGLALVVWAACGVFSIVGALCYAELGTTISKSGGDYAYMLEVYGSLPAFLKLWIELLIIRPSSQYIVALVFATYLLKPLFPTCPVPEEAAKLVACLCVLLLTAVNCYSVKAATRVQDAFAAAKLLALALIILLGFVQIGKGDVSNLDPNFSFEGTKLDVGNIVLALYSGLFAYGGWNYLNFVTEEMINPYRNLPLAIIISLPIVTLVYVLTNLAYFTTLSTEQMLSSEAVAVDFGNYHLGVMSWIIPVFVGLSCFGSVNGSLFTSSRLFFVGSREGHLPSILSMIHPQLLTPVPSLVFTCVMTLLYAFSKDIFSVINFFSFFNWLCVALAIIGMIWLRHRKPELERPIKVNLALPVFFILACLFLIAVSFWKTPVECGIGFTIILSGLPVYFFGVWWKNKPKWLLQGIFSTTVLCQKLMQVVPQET
T1 sequence (P08195 102-630 partner): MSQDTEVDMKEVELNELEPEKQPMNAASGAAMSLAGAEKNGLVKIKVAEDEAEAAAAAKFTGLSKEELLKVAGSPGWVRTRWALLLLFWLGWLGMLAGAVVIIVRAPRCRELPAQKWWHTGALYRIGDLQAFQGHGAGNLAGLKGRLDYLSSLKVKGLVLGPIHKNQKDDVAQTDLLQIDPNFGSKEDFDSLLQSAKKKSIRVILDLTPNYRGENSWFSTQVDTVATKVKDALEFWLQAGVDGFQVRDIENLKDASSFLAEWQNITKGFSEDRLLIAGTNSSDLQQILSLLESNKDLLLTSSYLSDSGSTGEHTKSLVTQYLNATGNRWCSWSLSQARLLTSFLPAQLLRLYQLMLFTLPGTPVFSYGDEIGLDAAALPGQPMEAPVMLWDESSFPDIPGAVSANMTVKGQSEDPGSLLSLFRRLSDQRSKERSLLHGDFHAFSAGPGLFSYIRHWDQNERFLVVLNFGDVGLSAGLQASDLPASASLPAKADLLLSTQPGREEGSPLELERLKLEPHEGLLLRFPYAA

Structure (SMILES): C[C@](N)(Cc1ccc(O)c([131I])c1)C(=O)O [3-Iodo(^131I)-α-methyl-L-tyrosine, 3-iodo(^131I)-α-methyl-L-tyrosine]
- time stable after labeling (stability after labeling): up to 7 days

Structure (SMILES): C[C@](N)(Cc1ccc(O)cc1)C(=O)O [AMT, α-methyltyrosine, reference compound]
- inhibition of ^211At-AAMT intracellular uptake [1]: significantly inhibited

Structure (SMILES): NC1(C(=O)O)CC2CCC1C2 (centres unmarked) [BCH, 2-aminobicyclo[2,2,1]heptane-2-carboxylic acid, reference compound]
- inhibition of ^211At-AAMT intracellular uptake [1]: significantly inhibited

Structure (SMILES): C[C@](N)(Cc1ccc(O)c([211At])c1)C(=O)O [^211At-AAMT, 3-astato (^211At)-α-methyl-L-tyrosine]
- ^211At-AAMT intracellular uptake and its inhibition by BCH and AMT, compared with the method of the present invention ([1]; synthesized by the conventional mercury method, FIG. 6b): consistent
- ^211At-AAMT intracellular uptake (radioactivity count/protein amount) ([1]; synthesized by the method of the present invention, control (CTL), FIG. 6a): strongly taken up
- cell viability, compared with the method of the present invention (HEK293 cells; synthesized by the conventional mercury method): consistent
- cell viability (HEK293 cells; synthesized by the method of the present invention): decreased in a dose-dependent manner
- stability of the produced ^211At-AAMT [2]: unstable
